The results in this text go back to ChEMBL document CHEMBL3351682, “NaSH in the construction of thiophene ring fused with N-heterocycles: a rapid and inexpensive synthesis of novel small molecules as potential inducers of apoptosis” (Bioorg Med Chem Lett, 2014).

SMILES strings stand for the structures. Calls of active or inactive are those of the source. No cut-off for these calls is given here.

As usually defined, the EC50 is the concentration giving half of the maximal effect. High values mean lower potency in that assay, low ones higher potency in that assay. In general, NOAEL refers to the highest tested level that showed no adverse finding.

The species named for data set [1] is Danio rerio. As to the kind of experiment: Induction of apoptosis in zebrafish embryo at 30 uM after 24 to 48 hrs by acridine orange staining based fluorescence microscopy. It counts as functional, organism-based.
For data set [2], the species on record is Danio rerio. In words: Teratogenicity in zebrafish embryo at 1 to 30 uM incubated until 5 days post fertilization. To be noted: in vivo, 120 h. The class given is ADME, organism-based.
For data set [3], the species on record is Danio rerio. In words: Hepatotoxicity in zebrafish embryo at 1 to 30 uM incubated until 7 days post fertilization. It counts as organism-based. To be noted: in vivo, 168 h.
Data set [4] is filed under the species Danio rerio. In words: Induction of apoptosis in zebrafish embryo after 24 to 48 hrs by acridine orange staining based fluorescence microscopy. The class given is functional, organism-based.
For data set [5], the species on record is Danio rerio. In words: Teratogenicity in zebrafish embryo incubated until 5 days post fertilization. The class given is ADME, organism-based. To be noted: in vivo, 120 h.
The species entered for data set [6] is Danio rerio. As to the kind of experiment: Hepatotoxicity in zebrafish embryo incubated until 7 days post fertilization. It counts as organism-based. To be noted: in vivo, 168 h.
A short description of data set [7]: Therapeutic index, ratio of NOAEL to apoptotic EC50 in Zebrafish embryo. The class given is organism-based, Danio rerio. To be noted: in vivo, read-out: TI.
The species named for data set [8] is Danio rerio. In words: Induction of apoptosis in zebrafish embryo at 1 to 30 uM after 24 to 48 hrs by acridine orange staining based fluorescence microscopy. It counts as functional, organism-based.
The species entered for data set [9] is Danio rerio. In words: Teratogenicity in zebrafish embryo at 30 uM incubated until 5 days post fertilization. It counts as ADME, organism-based. To be noted: in vivo, 120 h.
For data set [10], the species on record is Danio rerio. As to the kind of experiment: Teratogenicity in zebrafish embryo at 10 uM incubated until 5 days post fertilization. It counts as ADME, organism-based. The settings on record: in vivo, 120 h.
The species named for data set [11] is Danio rerio. As to the kind of experiment: Hepatotoxicity in zebrafish embryo at 10 uM incubated until 7 days post fertilization. The settings on record: in vivo, 168 h. It counts as organism-based.
Data set [12] is filed under the species Danio rerio. In words: Hepatotoxicity in zebrafish embryo assessed as induction of mortality at 30 uM incubated until 7 days post fertilization. The class given is organism-based. To be noted: in vivo, 168 h.
The species entered for data set [13] is Danio rerio. In words: Induction of apoptosis in zebrafish embryo at 1 to 3 uM after 24 to 48 hrs by acridine orange staining based fluorescence microscopy. It counts as functional, organism-based.

As for `Fc1cc(F)cc(-c2cc3nc4ccccc4nc3s2)c1`, in data set [1], the result was Active. Moreover, the Activity entry in [2] and in data set [3] was “Non-toxic” in each case. The molecule further displayed an EC50 in [4] of 10.3 µM. Besides, the NOAEL in [5] and in [6] was 30 µM in each case. Moreover, in data set [7], the selectivity ratio is 2.9.

Turning to `CCCc1cc2nc3ccccc3nc2s1`, in data set [1], the result was Active. Besides, the values for the Activity entry in data set [8], in data set [2] and in data set [3] were “Dose-dependent effect”, “Non-toxic” and “Non-toxic”, respectively. In data set [4], this molecule registered an EC50 of 4.46 µM. Moreover, the NOAEL in data set [5] and in [6] was 30 µM in each case. Moreover, the selectivity ratio in [7] was 6.72.

In the case of `Fc1cc(F)cc(-c2cc3nccnc3s2)c1`, the result in data set [1] was Active. For the same molecule, the Activity result in data set [2] and in data set [3] was “Non-toxic” throughout. In [4], this molecule yielded an EC50 of 9.82 µM. The NOAEL in data set [5] and in data set [6] was 30 µM throughout. The selectivity ratio in [7] turned out to be 3.05.

With `CC(C)(C)c1cc2nc3ccccc3nc2s1`, the outcome in [1] was Active. Further, the Activity entry in [8] is “Dose-dependent effect”; in data set [9] it was “Toxic”; in data set [10], “Non-toxic”; in data set [11], “Toxic”; in [12], “Toxic”. For the same molecule, a half-maximal effect in [4] (EC50) was put at 4.89 µM. The NOAEL in data set [5] was found to be 3 µM; in [6] it was 1 µM. In addition, the selectivity ratio in data set [7] amounted to 0.2.

`c1ccc(-c2cc3nc4ccccc4nc3s2)cc1`: the outcome in data set [1] and in [13] was Active. The Activity result is on record as “Toxic” in data set [9] and “Non-toxic” in data set [3]. Also, in data set [4], it took 8.5 µM to reach a half-maximal effect (EC50). The NOAEL in data set [5] and in [6] was 10 µM in each case. The selectivity ratio in [7] was 1.17.
